This passage reports Kd and IC50 results from patent US20260022118A1, “HETEROCYCLIC COMPOUNDS AS NRAS INHIBITORS” (Board of Regents, The University of Texas System, priority 2023, published 2026).

In one test the target is NRAS G12D C118S (Homo sapiens (Human), UniProt P01111, C118S/G12D). The experiment in a line: NRas G12D Surface Plasmon Resonance (SPR) binding assay. To be noted: Avi-tagged biotinylated NRAS G12D C118S on streptavidin chip, 25° C., 1:1 kinetic or steady-state fit. The gist of the method: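 Biotinylated Avi-tagged NRAS G12D C118S was captured at about 600 RU on a streptavidin chip alongside a blank reference channel. Compounds were run as 10-point 1:3 dilution series in HBS-P+ pH 7.4 with 5 mM MgCl2 and 3% DMSO, using a 2–4% DMSO solvent correction. A control compound at 10 μM was injected periodically to check protein activity.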

The test system of test [1] is THP-1 cells expressing G12D (NRAS G12D). The experiment in a line: Inhibition of NRAS G12D-mediated phosphorylation of ERK (AlphaLISA p-ERK1/2) in THP-1 cells. The format is cell-based. The conditions noted are these: Homo sapiens, THP-1, 2 h, 2 hours incubation, HBSS with 0% or 10% FBS, p-ERK1/2 (Thr202/Tyr204) AlphaLISA, read-out: pERK THP-1 IC50. The gist of the method:
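THP-1 cells expressing NRAS G12D, seeded in HBSS with 0% or 10% FBS, were exposed to test compound (1% DMSO final) for 2 h. p-ERK1/2 (Thr202/Tyr204) read by AlphaLISA SureFire Ultra. IC50 from curves normalized to no-inhibitor (100%) and 1 μM trametinib (0%) controls.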

NRAS G12D C118S, sequence (P01111 whole entry G12D/C118S): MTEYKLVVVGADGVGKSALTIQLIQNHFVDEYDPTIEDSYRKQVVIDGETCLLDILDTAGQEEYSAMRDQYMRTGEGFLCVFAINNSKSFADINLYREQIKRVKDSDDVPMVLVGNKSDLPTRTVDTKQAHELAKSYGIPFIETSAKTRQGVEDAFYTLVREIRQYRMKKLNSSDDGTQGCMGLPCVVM

`C#Cc1c(F)ccc2cc(O)cc(-c3ncc4c(N5C[C@@H]6CC[C@H]5CN6)nn(C5CC5)c4c3F)c12` [Example 106, 4-(3-((1S,4S)-2,5-diazabicyclo[2.2.2]octan-2-yl)-1-cyclopropyl-7-fluoro-1H-pyrazolo[4,3-c]pyridin-6-yl)-5-ethynyl-6-fluoronaphthalen-2-ol]: binding on NRAS G12D C118S was characterised by a dissociation constant (Kd) of 9.39 nM. For the same molecule, the half-inhibitory concentration (IC50) in test [1] came out at 163 nM.
For `C#Cc1c(F)ccc2cc(O)cc(-c3ncc4c(c(C)cn4C4[C@H]5CNC[C@@H]45)c3F)c12` (stereo partly drawn) [Example 40, 4-[1-[(1R,5S)-3-azabicyclo[3.1.0]hexan-6-yl]-4-fluoro-3-methyl-pyrrolo[2,3-c]pyridin-5-yl]-5-ethynyl-6-fluoro-naphthalen-2-ol], in that order: 1130 nM and over 10000 nM.
Taken in the same sequence, the figures for `C#Cc1c(F)ccc2cc(O)cc(-c3nc(NC(C)C)c4c([C@H]5[C@@H]6CNC[C@@H]65)nn(C5CC5)c4c3F)c12` [Example 77, 4-(3-((1R,5S,6r)-3-azabicyclo[3.1.0]hexan-6-yl)-1-cyclopropyl-7-fluoro-4-(isopropylamino)-1H-pyrazolo[4,3-c]pyridin-6-yl)-5-ethynyl-6-fluoronaphthalen-2-ol] were 17.9 nM and 258 nM.
`C#Cc1c(F)ccc2cc(O)cc(-c3ncc4c(N5CC6CC5CN6)nn(C)c4c3F)c12` (stereo not shown) [Example 28, 4-(3-(2,5-diazabicyclo[2.2.1]heptan-2-yl)-7-fluoro-1-methyl-1H-pyrazolo[4,3-c]pyridin-6-yl)-5-ethynyl-6-fluoronaphthalen-2-ol]: binding on NRAS G12D C118S was characterised by a dissociation constant (Kd) of 1100 nM. Besides, in test [1], the IC50 worked out at 11900 nM.
For `C#Cc1c(F)ccc2cc(O)cc(-c3ncc4c([C@H]5[C@@H]6CNC[C@@H]65)nn([C@@H]5C[C@@H]5C)c4c3F)c12` [Example 104, 4-(3-((1R,5S,6r)-3-azabicyclo[3.1.0]hexan-6-yl)-7-fluoro-1-((1R,2S)-2-methylcyclopropyl)-1H-pyrazolo[4,3-c]pyridin-6-yl)-5-ethynyl-6-fluoronaphthalen-2-ol], in that order: 1170 nM and 12500 nM.
